From PubChem BioAssay (NCI)
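These data come from cells grown in 96-well plates and exposed to compound for 48 hours at five concentrations. Here, GI50 denotes the concentration required for 50% inhibition of growth. TGI: total growth inhibition.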

Assays:
Test in all cases: NCI anticancer screen, dose series, 48 h
SR leukemia = test system: SR leukemia
M14 melanoma = test system: M14 melanoma
HOP-92 NSCLC = test system: HOP-92 NSCLC
UACC-62 melanoma = test system: UACC-62 melanoma
MDA-MB-435 = test system: MDA-MB-435
RXF 393 renal = test system: RXF 393 renal
NCI-H226 lung = test system: NCI-H226 lung
HCC-2998 colon = test system: HCC-2998 colon
NCI-H23 lung = test system: NCI-H23 lung
CCRF-CEM leukemia = test system: CCRF-CEM leukemia
A498 renal = test system: A498 renal
OVCAR-5 ovarian = test system: OVCAR-5 ovarian
HL-60(TB) leukemia = test system: HL-60(TB) leukemia
T-47D breast = test system: T-47D breast
DU-145 prostate = test system: DU-145 prostate
EKVX NSCLC = test system: EKVX NSCLC
RPMI-8226 leukemia = test system: RPMI-8226 leukemia
U251 CNS = test system: U251 CNS
MOLT-4 leukemia = test system: MOLT-4 leukemia
HCT-116 colon = test system: HCT-116 colon
SK-MEL-28 melanoma = test system: SK-MEL-28 melanoma
UACC-257 melanoma = test system: UACC-257 melanoma
OVCAR-3 ovarian = test system: OVCAR-3 ovarian
HT29 colon = test system: HT29 colon
COLO 205 colon = test system: COLO 205 colon
ACHN renal = test system: ACHN renal
IGROV1 ovarian = test system: IGROV1 ovarian
A549 NSCLC = test system: A549 NSCLC
LOX IMVI melanoma = test system: LOX IMVI melanoma
NCI-H522 lung = test system: NCI-H522 lung
KM12 colon = test system: KM12 colon
UO-31 renal = test system: UO-31 renal
SF-268 CNS = test system: SF-268 CNS
BT-549 breast = test system: BT-549 breast
HOP-62 NSCLC = test system: HOP-62 NSCLC
PC-3 prostate = test system: PC-3 prostate
786-0 renal = test system: 786-0 renal
SN12C renal = test system: SN12C renal
NCI/ADR-RES ovarian = test system: NCI/ADR-RES ovarian
K-562 leukemia = test system: K-562 leukemia
OVCAR-4 ovarian = test system: OVCAR-4 ovarian
SK-MEL-2 melanoma = test system: SK-MEL-2 melanoma
SF-295 CNS = test system: SF-295 CNS
SW-620 colon = test system: SW-620 colon
HS 578T breast = test system: HS 578T breast
SF-539 CNS = test system: SF-539 CNS
MDA-MB-231 breast = test system: MDA-MB-231 breast
OVCAR-8 ovarian = test system: OVCAR-8 ovarian
HCT-15 colon = test system: HCT-15 colon
SNB-19 CNS = test system: SNB-19 CNS
MCF7 breast = test system: MCF7 breast
TK-10 renal = test system: TK-10 renal
SNB-75 CNS = test system: SNB-75 CNS
CAKI-1 renal = test system: CAKI-1 renal
NCI-H460 lung = test system: NCI-H460 lung
SK-OV-3 ovarian = test system: SK-OV-3 ovarian
SK-MEL-5 melanoma = test system: SK-MEL-5 melanoma

Work on COC1C(O)CC(OC2CC(OC3CC(O[C@@H]4C(=O)c5c(cc6cc(OC7CC(OC8CC(O)C(O)C(C)O8)C(O)C(C)O7)c(C)c(O)c6c5O)CC4[C@H](OC)C(=O)C(C)=O)OC(C)C3O)OC(C)C2O)OC1C (stereo partly drawn) yielded a GI50 (SR leukemia) of 9.1 nM, a TGI (SR leukemia) of 64.5 nM and a GI50 (M14 melanoma) of 8.43 nM. It also gave a TGI (M14 melanoma) of 21.4 nM, a GI50 (HOP-92 NSCLC) of 10.8 nM and a TGI (HOP-92 NSCLC) of 66.9 nM. It also gave a GI50 (UACC-62 melanoma) of 7.19 nM, a TGI (UACC-62 melanoma) of 16.7 nM and a GI50 (MDA-MB-435) of 14.9 nM. The TGI (MDA-MB-435) was 34.3 nM, the GI50 (RXF 393 renal) was 25.2 nM and the TGI (RXF 393 renal) was 103 nM. For the same compound, the GI50 (NCI-H226 lung) was 13.2 nM, the GI50 (HCC-2998 colon) was 10.6 nM and the TGI (HCC-2998 colon) was 40.2 nM. It also gave a GI50 (NCI-H23 lung) of 12.5 nM, a TGI (NCI-H23 lung) of 66.1 nM and a GI50 (CCRF-CEM leukemia) of 15.6 nM. It also gave a TGI (CCRF-CEM leukemia) of 673 nM, a GI50 (A498 renal) of 23.3 nM and a TGI (A498 renal) of 88.4 nM. The GI50 (OVCAR-5 ovarian) was 23.4 nM, the TGI (OVCAR-5 ovarian) was greater than 33300 nM and the GI50 (HL-60(TB) leukemia) was 15.9 nM. For the same compound, the TGI (HL-60(TB) leukemia) was 59.4 nM, the GI50 (T-47D breast) was 12 nM and the TGI (T-47D breast) was 79.1 nM. It also gave a GI50 (DU-145 prostate) of 15.5 nM, a TGI (DU-145 prostate) greater than 32200 nM and a GI50 (EKVX NSCLC) of 20.1 nM. It also gave a TGI (EKVX NSCLC) greater than 33300 nM, a GI50 (RPMI-8226 leukemia) of 10.6 nM and a TGI (RPMI-8226 leukemia) of 206 nM. The GI50 (U251 CNS) was less than 10.6 nM, the TGI (U251 CNS) was greater than 33300 nM and the GI50 (MOLT-4 leukemia) was 12.3 nM. The TGI (MOLT-4 leukemia) was 60.7 nM, the GI50 (HCT-116 colon) was 11.2 nM and the TGI (HCT-116 colon) was greater than 33300 nM. For the same compound, the GI50 (SK-MEL-28 melanoma) was 10.6 nM, the TGI (SK-MEL-28 melanoma) was 52.8 nM and the GI50 (UACC-257 melanoma) was 10.7 nM. For the same compound, the TGI (UACC-257 melanoma) was 41.4 nM, the GI50 (OVCAR-3 ovarian) was 13.1 nM and the TGI (OVCAR-3 ovarian) was 67.3 nM. It also gave a GI50 (HT29 colon) of 12.2 nM, a TGI (HT29 colon) of 53.5 nM and a GI50 (COLO 205 colon) of 12.1 nM. For the same compound, the TGI (COLO 205 colon) was 31.9 nM, the GI50 (ACHN renal) was 52 nM and the TGI (ACHN renal) was greater than 33300 nM. For the same compound, the GI50 (IGROV1 ovarian) was 15.9 nM, the TGI (IGROV1 ovarian) was greater than 33300 nM and the GI50 (A549 NSCLC) was 15.9 nM. It also gave a TGI (A549 NSCLC) greater than 33300 nM, a GI50 (LOX IMVI melanoma) of 8.5 nM and a TGI (LOX IMVI melanoma) of 22.9 nM. The GI50 (NCI-H522 lung) was 8.77 nM, the TGI (NCI-H522 lung) was 32.1 nM and the GI50 (KM12 colon) was 10.9 nM. The TGI (KM12 colon) was greater than 16000 nM, the GI50 (UO-31 renal) was less than 20 nM and the GI50 (SF-268 CNS) was 13.7 nM. It also gave a TGI (SF-268 CNS) of 138 nM, a GI50 (BT-549 breast) of 10 nM and a TGI (BT-549 breast) of 33.5 nM. For the same compound, the GI50 (HOP-62 NSCLC) was 8.95 nM, the TGI (HOP-62 NSCLC) was 26.9 nM and the GI50 (PC-3 prostate) was less than 14.2 nM. The TGI (PC-3 prostate) was greater than 22600 nM, the GI50 (786-0 renal) was 33.1 nM and the TGI (786-0 renal) was greater than 33300 nM. For the same compound, the GI50 (SN12C renal) was 13.8 nM, the TGI (SN12C renal) was greater than 33300 nM and the GI50 (NCI/ADR-RES ovarian) was 433 nM. For the same compound, the TGI (NCI/ADR-RES ovarian) was greater than 33300 nM, the GI50 (K-562 leukemia) was 15.8 nM and the GI50 (OVCAR-4 ovarian) was 24.5 nM. The TGI (OVCAR-4 ovarian) was 10800 nM, the GI50 (SK-MEL-2 melanoma) was 9.27 nM and the TGI (SK-MEL-2 melanoma) was 27.5 nM. The GI50 (SF-295 CNS) was 11 nM, the GI50 (SW-620 colon) was 15.5 nM and the TGI (SW-620 colon) was greater than 33300 nM. It also gave a GI50 (HS 578T breast) of 11.1 nM, a TGI (HS 578T breast) greater than 11300 nM and a GI50 (SF-539 CNS) of 9.76 nM. For the same compound, the TGI (SF-539 CNS) was 27.4 nM, the GI50 (MDA-MB-231 breast) was 49.5 nM and the TGI (MDA-MB-231 breast) was greater than 33300 nM. The GI50 (OVCAR-8 ovarian) was 13.2 nM, the TGI (OVCAR-8 ovarian) was greater than 33300 nM and the GI50 (HCT-15 colon) was 101 nM. It also gave a TGI (HCT-15 colon) greater than 33300 nM, a GI50 (SNB-19 CNS) of 10.5 nM and a TGI (SNB-19 CNS) greater than 33300 nM. For the same compound, the GI50 (MCF7 breast) was 10.8 nM, the TGI (MCF7 breast) was greater than 33300 nM and the GI50 (TK-10 renal) was 20.4 nM. The TGI (TK-10 renal) was 75.8 nM, the GI50 (SNB-75 CNS) was 6.78 nM and the TGI (SNB-75 CNS) was 20 nM. The GI50 (CAKI-1 renal) was 41.5 nM, the TGI (CAKI-1 renal) was greater than 33300 nM and the GI50 (NCI-H460 lung) was 12 nM. It also gave a TGI (NCI-H460 lung) greater than 33300 nM.
Compound C=C1C(=O)OC2C1C(=O)C/C(C)=C/CCC1(C)OC21 (stereo not drawn) has a TGI (SK-OV-3 ovarian) greater than 100000 nM, a TGI (SR leukemia) greater than 100000 nM and a TGI (M14 melanoma) of 31700 nM. For the same compound, the TGI (HOP-92 NSCLC) was 41700 nM, the TGI (UACC-62 melanoma) was 66800 nM and the TGI (MDA-MB-435) was 31100 nM. The TGI (SK-MEL-5 melanoma) was 34500 nM, the TGI (RXF 393 renal) was 31900 nM and the TGI (NCI-H226 lung) was 39200 nM. For the same compound, the TGI (HCC-2998 colon) was 35300 nM, the TGI (NCI-H23 lung) was 38800 nM and the TGI (CCRF-CEM leukemia) was greater than 100000 nM. It also gave a TGI (A498 renal) of 49600 nM, a TGI (OVCAR-5 ovarian) of 33000 nM and a TGI (HL-60(TB) leukemia) of 7230 nM. For the same compound, the TGI (T-47D breast) was 32200 nM, the TGI (DU-145 prostate) was 32100 nM and the TGI (EKVX NSCLC) was 61200 nM. For the same compound, the TGI (RPMI-8226 leukemia) was 31700 nM, the TGI (U251 CNS) was 37700 nM and the TGI (MOLT-4 leukemia) was 47000 nM. The TGI (HCT-116 colon) was 33500 nM, the TGI (SK-MEL-28 melanoma) was 31600 nM and the TGI (UACC-257 melanoma) was 41300 nM. The TGI (OVCAR-3 ovarian) was 31800 nM, the TGI (HT29 colon) was 43200 nM and the TGI (COLO 205 colon) was 18000 nM. It also gave a TGI (ACHN renal) of 22200 nM, a TGI (IGROV1 ovarian) of 44900 nM and a TGI (A549 NSCLC) of 37800 nM. It also gave a TGI (LOX IMVI melanoma) of 36700 nM, a TGI (NCI-H522 lung) of 12000 nM and a TGI (KM12 colon) of 53300 nM. It also gave a TGI (UO-31 renal) of 28400 nM, a TGI (SF-268 CNS) of 50800 nM and a TGI (BT-549 breast) of 54600 nM. It also gave a TGI (HOP-62 NSCLC) of 28000 nM, a TGI (PC-3 prostate) of 33300 nM and a TGI (786-0 renal) of 31800 nM. The TGI (SN12C renal) was 42600 nM, the TGI (NCI/ADR-RES ovarian) was 99400 nM and the TGI (K-562 leukemia) was 74000 nM. It also gave a TGI (OVCAR-4 ovarian) of 46000 nM, a TGI (SK-MEL-2 melanoma) of 35800 nM and a TGI (SF-295 CNS) greater than 100000 nM. For the same compound, the TGI (SW-620 colon) was 40800 nM, the TGI (HS 578T breast) was greater than 100000 nM and the TGI (SF-539 CNS) was 29300 nM. For the same compound, the TGI (MDA-MB-231 breast) was 38300 nM, the TGI (OVCAR-8 ovarian) was 56200 nM and the TGI (HCT-15 colon) was 28600 nM. For the same compound, the TGI (SNB-19 CNS) was greater than 100000 nM, the TGI (MCF7 breast) was 29200 nM and the TGI (TK-10 renal) was 30800 nM. The TGI (SNB-75 CNS) was 46700 nM, the TGI (CAKI-1 renal) was 28600 nM and the TGI (NCI-H460 lung) was 39700 nM.
